Here are results for twelve molecules from patent US20220339150A1, “ENDOCANNABINOID SYSTEM-TARGETING PRODRUGS AND THERAPEUTIC USES THEREOF” (priority 2021, published 2022).

Data set [1] is described as follows: Metabolic stability in human liver microsomes. In kind it is in vitro ADME. The conditions noted are these: for microsomal CLint / Half-life in human liver microsomes (single determinations): Table 5. On the procedure:
The prodrugs were incubated with the human liver microsomes at 37° C. as an indication of the susceptibility of prodrugs to undergo bioconversion in the liver. The reactions were initiated by adding 1.5 μL of the prodrug stock solution (10 mg/mL in DMSO) to a preheated solution consisting of 748.5 μL potassium phosphate buffer solution (20 mM, pH 7.4, ionic strength 0.5), 200 μL NADPH, and 50 μLhuman liver microsomes (mixed gender, 0.5 ml at 20 mg/mL). The solutions were stirred at a constant temperature of 37° C. At appropriate intervals, 50 μLof samples were mixed with 100 μL of ice-cold MeOH. After immediate mixing and centrifugation (5 min at 14.000 rpm), the resulting clear supernatant was analyzed for the remaining prodrug by HPLC.

The test system of data set [2] is reconstructed human oral buccal epithelium cells (SkinEthic HOE, TR146 cells). Description: In vitro buccal permeability (SkinEthic human oral epithelium). The conditions noted are these: for Flux (buccal) / Flux compared with parent cannabinoid / Species making up the buccal flux / formation of parent cannabinoid: Table 4; for Flux (buccal): suspension ca. 2 mg/ml in 5% EtOH/phosphate buffer pH 6.8, 37° C., receiver 15% HP-β-cyclodextrin; for Flux compared with parent cannabinoid: buccal flux relative to parent; for Species making up the buccal flux / formation of parent cannabinoid / Species making up the buccal flux (parent vs intact prodrug): remark in flux cell; for Buccal permeation compared with parent cannabinoid (in words): 5% ethanol suspension; for Species making up the buccal flux (parent vs intact prodrug): Table 2. Type of data set: in vitro ADME. Here is the method:
The in vitro permeability studies were carried out in commercial reconstructed human oral buccal epithelium cells (SkinEthic™ human oral epithelium). The SkinEthic™ HOE model is composed of TR146 cells (derived from a squamous cell carcinoma of the buccal mucosa) cultivated on an inert polycarbonate filter at the air-liquid interface in a chemically defined medium. This model forms an epithelial tissue devoid of stratum corneum, resembling histologically to the mucosa of the oral cavity.
Upon receiving the cells, each insert (0.5 cm^2 or 0.33 cm^2) was placed in a plate containing 800 μL fresh medium at room temperature. The culture dishes were placed in the incubator at 37° C., 5% CO2, and saturated humidity overnight. Next day, the inserts were placed in a plate containing 800 μL 15% HP-β-cyclodextrin in H2O. The prodrugs were dissolved in 100% EtOH (5% (V/V) final conc.), and then sodium phosphate buffer solution (50 mM, pH 6.8, isotonic, 37° C.) was added (95% (V/V) final conc.). 400 μL of the prodrugs were applied as suspensions (ca. 2 mg/ml). The plates were stirred gently at 37° C. At appropriate intervals, the receptor compartment was sampled (100 μL) and replenished with fresh […] solution each time. The samples were mixed with 100 μL of MeOH, and analyzed for drug (both the parent cannabinoid and the prodrug) by HPLC-MS.
The buccal flux-values for the rate of delivery of drugs were determined from Fick's law of diffusion.

The nature of data set [3]: Stability in 80% human plasma (serum). In kind it is in vitro ADME. To be noted: 80% human serum (pH 7.4) at 37° C.; for half-life: human, serum. Here is the method:
The rates of the degradation of the prodrugs were determined in 80% human serum (pH 7.4) at 37° C. as an indication of the susceptibility of prodrugs to undergo bioconversion after reaching the circulation. The reactions were initiated by adding the first 10 μL of the prodrug stock solution (10 mg/mL in DMSO) to 200 μL preheated sodium phosphate buffer solution (50 mM, pH 7.4, ionic strength 0.5), and then adding 800 μL preheated human serum. The solutions were stirred at a constant temperature of 37° C. At appropriate intervals, 50 μL of samples were mixed with 150 μL of ice-cold MeOH. After immediate mixing and centrifugation (5 min at 14.000 rpm), the resulting clear supernatant was analyzed for the remaining prodrug by HPLC.

Data set [4] in a line: Stability in aqueous solutions (sodium phosphate buffer, 37° C.). Type of data set: physicochemical. To be noted: for half-life: buffer. On the procedure:
[…] The solutions of prodrugs were prepared by adding 10 μL of stock solution (10 mg/mL in DMSO) to the preheated buffer. The solutions were stirred at a constant temperature of 37° C. At appropriate intervals, 75 μL of samples were mixed with 75 μL of MeOH and analyzed for remaining prodrug by HPLC.
The pseudo-first-order rate constants (kobs) and half-lives (t1/2) for the degradation of the prodrugs were determined from the linear slopes of the plots by taking the logarithm of the remaining prodrug over time. Equations: kobs=slope/−2.303 and t1/2=ln2/kobs.

Where [5] appears, read: both sexes, human, microsomes, pH 7.4, Table 5, 37° C., NADPH, read-out: Half-life in human liver microsomes (single determinations) (converted).
[6] abbreviates: both sexes, human, microsomes, pH 7.4, Table 5, average of determinations, read-out: Half-life in human liver microsomes (avg.) (converted).
The mark [7] stands for this setting: both sexes, human, microsomes, pH 7.4.
The mark [8] stands for this setting: pH 6.8, Table 3, aqueous buffer pH 6.8, 37° C., read-out: Half-life in aqueous solution (converted).
[9] abbreviates: both sexes, human, microsomes, pH 7.4, Table 3, 37° C., NADPH, read-out: Half-life in human liver microsomes (single determinations) (converted).

Entries after “also recorded” stand apart in the source; their conditions may differ. Where two headings read alike, the source gives them in different places.

For `CCCCCc1cc(O)c2c(c1)OC(C)(CCC=C(C)C)C=C2` (stereo not shown) [CBC, Cannabichromene, reference compound], the half-life in data set [1] (setting [5]) is 1.93 h; in data set [1] (setting [6]) it was 1.86 h. In data set [1] (setting [7]), this molecule showed a microsomal CLint of 6.21 µL/min/mg. The “Flux (buccal)” value in data set [2] is 27.87 ± 2.46 nmol/cm^2/h.
In the case of `CCCCCc1cc(OC(=O)N2CCN(C)CC2)c2c(c1)OC(C)(CCC=C(C)C)C=C2` (stereo not shown) [CBCp1, 2-methyl-2-(4-methylpent-3-en-1-yl)-7-pentyl-2H-chromen-5-yl4-methylpiperazine-1-carboxylate], the Half-life in serum entry in data set [3] (Table 5) was “stable for 6 hrs”. Also, the Half-life in human liver microsomes (single determinations) in data set [1] (37° C., NADPH) worked out at 3.13 h. Also, in data set [1] (setting [5]), the half-life at 15 µg/mL is 4.18 h. Further, in data set [1] (setting [6]), the half-life at 15 µg/mL is 3.65 h. For the same molecule, in data set [2], the “Flux compared with parent cannabinoid” value is on record as “No improvement”, the “Species making up the buccal flux / formation of parent cannabinoid” value is on record as “NO significant formation of CBC” and the “Flux (buccal)” value is recorded as 15.88 ± 0.70 (prodrug) nmol/cm^2/h.
Consider `CCCCCc1cc(OC(=O)N2CCNCC2)c2c(c1)OC(C)(CCC=C(C)C)C=C2` (stereo not shown) [CBCp3, 2-methyl-2-(4-methylpent-3-en-1-yl)-7-pentyl-2H-chromen-5-yl piperazine-1-carboxylate], for which, in data set [3] (Table 5), the Half-life in serum entry was “stable for 6 hrs”. Also, the half-life at 15 µg/mL in data set [1] (setting [6]) was 14.9 h. Also, in data set [2], the “Flux compared with parent cannabinoid” value is reported as “No improvement”, the “Species making up the buccal flux / formation of parent cannabinoid” value is on record as “NO significant formation of CBC” and the “Flux (buccal)” value is 5.74 ± 0.51 (prodrug) nmol/cm^2/h.
Consider `C=C(C)[C@@H]1CCC(C)=C[C@H]1c1c(O)cc(CCCCC)cc1OC(=O)CN1CCN(C)CC1` [CBDp7, (1′R,2′R)-6-hydroxy-5′-methyl-4-pentyl-2′-(prop-1-en-2-yl)-1′,2′,3′,4′-tetrahydro-[1,1′-biphenyl]-2-yl 2-(4-methylpiperazin-1-yl)acetate], for which the half-life in data set [4] (setting [8]) was 0.16 h; in data set [3] (pH 7.4, Table 3), 2.6 h; in data set [1] (setting [9]), 0.12 h. The “Buccal permeation compared with parent cannabinoid (in words)” value in data set [2] is reported as “better than that of CBD”. Also, in data set [2], the “Species making up the buccal flux (parent vs intact prodrug)” value is listed as 1/3 CBD & 2/3.
For `C=C(C)[C@@H]1CCC(C)=C[C@H]1c1c(OC(=O)N2CCN(C)CC2)cc(CCCCC)cc1OC(=O)N1CCN(C)CC1` [CBDp14, (1′R,2′R)-5′-methyl-4-pentyl-2′-(prop-1-en-2-yl)-1′,2′,3′,4′-tetrahydro-[1,1′-biphenyl]-2,6-diyl bis(4-methylpiperazine-1-carboxylate)], the half-life in data set [4] (Table 3 footnote f, 20% of ethanol in the solution, read-out: Half-life in aqueous solution with ethanol) is 50 h. Moreover, the half-life in data set [4] (setting [8]) was 2.5 h. Also, the Half-life in serum entry in data set [3] (Table 3) is given as “stable”. Besides, in data set [1] (setting [9]), the half-life at 15 µg/mL is 0.86 h. In data set [2], the “Buccal permeation compared with parent cannabinoid (in words)” value is “better than that of CBD; also recorded: significantly improved permeability compared to CBD” and the “Species making up the buccal flux (parent vs intact prodrug)” value is reported as “only intact prodrug”.
With `C=C(C)[C@@H]1CCC(C)=C[C@H]1c1c(O)cc(CCCCC)cc1OC(=O)N1CCCCC1` [CBDp17, (1′R,2′R)-6-hydroxy-5′-methyl-4-pentyl-2′-(prop-1-en-2-yl)-1′,2′,3′,4′-tetrahydro-[1,1′-biphenyl]-2-yl piperidine-1-carboxylate], the “Species making up the buccal flux (parent vs intact prodrug)” value in data set [2] is “only intact prodrug”.
As to `C=C(C)[C@@H]1CCC(C)=C[C@H]1c1c(OC(=O)N2CCCCC2)cc(CCCCC)cc1OC(=O)N1CCCCC1` [CBDp18, (1′R,2′R)-5′-methyl-4-pentyl-2′-(prop-1-en-2-yl)-1′,2′,3′,4′-tetrahydro-[1,1′-biphenyl]-2,6-diyl bis(piperidine-1-carboxylate)], in data set [2], the “Species making up the buccal flux (parent vs intact prodrug)” value was “only intact prodrug”.
For `C=C(C)[C@@H]1CCC(C)=C[C@H]1c1c(O)cc(CCCCC)cc1OC(=O)N1CCNCC1` [CBDp21, (1′R,2′R)-6-hydroxy-5′-methyl-4-pentyl-2′-(prop-1-en-2-yl)-1′,2′,3′,4′-tetrahydro-[1,1′-biphenyl]-2-yl piperazine-1-carboxylate], in data set [2], the “Buccal permeation compared with parent cannabinoid (in words)” value was “better than that of CBD” and the “Species making up the buccal flux (parent vs intact prodrug)” value is recorded as “only intact prodrug”.
Turning to `C=C(C)[C@@H]1CCC(C)=C[C@H]1c1c(OC(=O)C2CCNC2)cc(CCCCC)cc1OC(=O)C1CCNC1` (stereo partly drawn) [CBDp24, (1′R,2′R)-5′-methyl-4-pentyl-2′-(prop-1-en-2-yl)-1′,2′,3′,4′-tetrahydro-[1,1′-biphenyl]-2,6-diyl bis(pyrrolidine-3-carboxylate)], the “Stability in standard and aqueous solutions (in words)” value in data set [4] (Table 3 footnote e) is “^e Could not be determined due to fast degradation in standard and aqueous solutions,”. In data set [2], the “Buccal permeation compared with parent cannabinoid (in words)” value was “better than that of CBD; also recorded: superior when compared to CBD and other prodrugs”; the “Species making up the buccal flux (parent vs intact prodrug)” value is “mostly intact”.
On to `CCCCCc1cc(O)c(C/C=C(\C)CCC=C(C)C)c(O)c1` [CBG, Cannabigerol, reference compound], for which the microsomal CLint at 15 µg/mL in data set [1] (setting [7]) was found to be 7.18 µL/min/mg. The half-life at 15 µg/mL in data set [1] (both sexes, human, microsomes, pH 7.4, Half-life in human liver microsomes (avg.)) was 1.61 h; in data set [1] (both sexes, human, microsomes, pH 7.4, Half-life in human liver microsomes (single determinations)), 1.79 h. Besides, in data set [1] (human, microsomes), the “Kobs (based on microsomes Half-life)” value is on record as 0.43.
As to `CCCCCc1cc(O)c2c(c1)OC(C)(C)[C@@H]1CCC(C)=C[C@@H]21` [THC, Δ9-Tetrahydrocannabinol, reference compound], the half-life in data set [1] (setting [5]) is 0.17 h; in data set [1] (setting [6]), 0.18 h. In addition, the microsomal CLint in data set [1] (setting [7]) is 64.2 µL/min/mg. Also, the “Flux (buccal)” value in data set [2] was determined as 19.65 ± 0.36 nmol/cm^2/h.
`CCCCCc1cc(OC(=O)C2CCNC2)c2c(c1)OC(C)(C)[C@@H]1CCC(C)=C[C@@H]21` (stereo partly drawn) [THCp2, (6aR,10aR)-6,6,9-trimethyl-3-pentyl-6a,7,8,10a-tetrahydro-6H-benzo[c]chromen-1-yl pyrrolidine-3-carboxylate]: the Half-life in aqueous solution in data set [4] (Table 5, aqueous buffer pH 6.8, 37° C., single determinations) is 0.46 h. Also, the half-life in data set [4] (pH 6.8, Table 5, aqueous buffer pH 6.8, 37° C., single determinations, read-out: Half-life in aqueous solution (converted)) was 0.49 h; in data set [3] (pH 7.4, Table 5) it was 0.42 h; in data set [1] (setting [5]) it was 2.09 h; in data set [1] (setting [6]) it was 2.44 h. The molecule also displayed a Half-life in serum in data set [3] (Table 5) of 0.43 h. The Half-life in human liver microsomes (single determinations) in data set [1] (37° C., NADPH) stood at 2.79 h.

Broadly, the half-life is how long it takes for the measured level to halve. What is called microsomal CLint is the rate of metabolic loss divided by the concentration. Read a high microsomal CLint as faster metabolism.
